What was measured:
h-GABA-A α2β2γ1 = h-GABA-A α2β2γ1 (Homo sapiens (Human), UniProt P47869+Q8N1C3); assay: Two-electrode voltage clamp electrophysiology in Xenopus oocytes expressing GABAA receptors; type: cell-based; settings: Table 2; for Efficacy (GABA) %: % modulation of GABA EC20 = 100*(Fold increase-1), compound at 30-fold Ki; for Fold increase h-GABA-A α2β2γ1 oocyte @ 30-fold Ki: GABA EC20, test compound at approx. 30-fold its Ki α2β2γ1, Xenopus oocytes, -80 mV
Experimental: Xenopus laevis oocytes at maturation stages V-VI were used for the expression of cloned mRNA encoding GABAA receptor subunits. Oocytes ready for RNA micro-injection were bought from Ecocyte, Castrop-Rauxel, Germany and stored in modified Barth's medium (composition in mM: NaCl 88, KCl 1, NaHCO3 2.4, HEPES 10, MgSO4 0.82, CaNO3 0.33, CaCl2 0.33, pH=7.5) at 20° C. until the experiment.
Oocytes were plated in 96-well plates for microinjection using the Roboinject automated instrument (MultiChannelSystems, Reutlingen, Germany). Approximately 50 nL of an aqueous solution containing the RNA transcripts for the subunits of the desired GABAA receptor subtype was injected into each oocyte. […] Oocytes were kept in modified Barth's medium (composition in mM: NaCl 88, KCl 1, NaHCO3 […], HEPES 10, MgSO4 0.82, CaNO3 0.33, CaCl2 0.33, pH=7.5) at 20° C. until the experiment.
Electrophysiological experiments were performed using the Roboocyte instrument (MultiChannelSystems, Reutlingen, Germany) on days 3 to 5 after the micro-injection of mRNA. During the experiment the oocytes were constantly superfused by a solution containing (in mM) NaCl 90, KCl 1, HEPES 5, MgCl2 1, CaCl2 1 (pH 7.4). Oocytes were impaled by two glass microelectrodes (resistance: […]) which were filled with a solution containing KCl 1M+K-acetate 1.5 M and voltage-clamped to −80 mV. The recordings were performed at room temperature using the Roboocyte two-electrode voltage clamp system (Multichannelsystem). After an initial equilibration period of 1.5 min GABA was added for 1.5 min at a concentration evoking approximately 20% of a maximal current response (EC20). After another rest interval of 2.5 min GABA was again added evoking a response of similar amplitude and shape. […] Current traces were recorded at a digitization rate of 10 Hz during and shortly before and after the GABA application.
Each compound and concentration was tested on at least 3 oocytes. Different oocytes were used for different compound concentrations.
For the analysis, the digitized current traces of the first and second GABA response were superimposed and, if necessary, rescaled to equal maximal amplitudes. The ratio between the two responses during the time interval of test compound application was calculated point by point. The extremum of the resulting “ratio trace” was taken as the efficacy (“Fold increase”) of the compound expressed as “% modulation of GABA EC20” (100*(Fold increase−1)).

[1] = target: human GABAA α1β2γ1 receptor (Homo sapiens (Human), UniProt P14867+Q8N1C3); assay: Radioligand binding assay, competition for [3H]RO7239181, γ1-containing GABAA subtypes
[2] = Table 1, [3H]RO7239181 displacement, membranes from HEK293F cells, mean of two determinations
[3] = Table 3, reference compounds comparison

| Structure (SMILES) | Efficacy (GABA) % (h-GABA-A α2β2γ1) [%] | Fold increase h-GABA-A α2β2γ1 oocyte @ 30-fold Ki (h-GABA-A α2β2γ1) | Ki [1, 2] [µM] | Ki [1, 3] [µM] |
| --- | --- | --- | --- | --- |
| Cc1nnc2n1-c1cnc(Cl)c(Cl)c1C(c1c(F)cccc1F)=N[C@H]2C [Example 1, (7S)-11,12-dichloro-9-(2,6-difluorophenyl)-3,7-dimethyl-2,4,5,8,13-pentazatricyclo[8.4.0.02,6]tetradeca-1(10),3,5,8,11,13-hexaene] | 55 | 1.55 | – | – |
| Cc1nnc2n1-c1cnc(C3CC3)c(Cl)c1C(c1c(F)cccc1F)=N[C@H]2C [Example 2, (7S)-11-chloro-12-cyclopropyl-9-(2,6-difluorophenyl)-3,7-dimethyl-2,4,5,8,13-pentazatricyclo[8.4.0.02,6]tetradeca-1(10),3,5,8,11,13-hexaene] | 162 | 2.62 | – | – |
| Cc1ncc2c(c1Cl)C(c1c(F)cccc1F)=N[C@@H](C)c1nnc(C)n1-2 [Example 3, (7S)-11-chloro-9-(2,6-difluorophenyl)-3,7,12-trimethyl-2,4,5,8,13-pentazatricyclo[8.4.0.02,6]tetradeca-1(10),3,5,8,11,13-hexaene] | 66 | 1.66 | – | – |
| Cc1nnc2n1-c1cnc(C(F)(F)F)c(Cl)c1C(c1c(F)cccc1F)=N[C@H]2C [Example 4, (7S)-11-chloro-9-(2,6-difluorophenyl)-3,7-dimethyl-12-(trifluoromethyl)-2,4,5,8,13-pentazatricyclo[8.4.0.02,6]tetradeca-1(10),3,5,8,11,13-hexaene] | 116 | 2.16 | 0.0516 | 0.0516 |
| Cc1nc2n(n1)-c1cnc(C(F)(F)F)c(Cl)c1C(c1c(F)cccc1F)=N[C@H]2C [Example 5] | 84 | 1.84 | – | – |
| C[C@@H]1N=C(c2c(F)cccc2F)c2c(cnc(C(F)(F)F)c2Cl)-n2nc(C(=O)N3CCC3)nc21 [Example 6, azetidin-1-yl-[(7S)-11-chloro-9-(2,6-difluorophenyl)-7-methyl-12-(trifluoromethyl)-2,3,5,8,13-pentazatricyclo[8.4.0.02,6]tetradeca-1(10),3,5,8,11,13-hexaen-4-yl]methanone] | 91 | 1.91 | – | – |
| C[C@@H]1N=C(c2c(F)cccc2F)c2c(cnc(C(F)(F)F)c2Cl)-n2nc(C(=O)N3CC(F)C3)nc21 [Example 7, [(7S)-11-chloro-9-(2,6-difluorophenyl)-7-methyl-12-(trifluoromethyl)-2,3,5,8,13-pentazatricyclo[8.4.0.02,6]tetradeca-1(10),3,5,8,11,13-hexaen-4-yl]-(3-fluoroazetidin-1-yl)methanone] | 85 | 1.85 | – | – |
| C[C@@H]1N=C(c2c(F)cccc2F)c2c(cnc(C(F)(F)F)c2Cl)-n2nc(C(=O)N3CC(O)C3)nc21 [Example 8, [(7S)-11-chloro-9-(2,6-difluorophenyl)-7-methyl-12-(trifluoromethyl)-2,3,5,8,13-pentazatricyclo[8.4.0.02,6]tetradeca-1(10),3,5,8,11,13-hexaen-4-yl]-(3-hydroxyazetidin-1-yl)methanone] | 114 | 2.14 | 0.0488 | – |
| COC1CN(C(=O)c2nc3n(n2)-c2cnc(C(F)(F)F)c(Cl)c2C(c2c(F)cccc2F)=N[C@H]3C)C1 [Example 9, [(7S)-11-chloro-9-(2,6-difluorophenyl)-7-methyl-12-(trifluoromethyl)-2,3,5,8,13-pentazatricyclo[8.4.0.02,6]tetradeca-1(10),3,5,8,11,13-hexaen-4-yl]-(3-methoxyazetidin-1-yl)methanone] | 87 | 1.87 | 0.0458 | – |
| C[C@@H]1N=C(c2c(F)cccc2F)c2c(cnc(C(F)(F)F)c2Cl)-n2nc(C(=O)N3CC(C)(O)C3)nc21 [Example 10, [(7S)-11-chloro-9-(2,6-difluorophenyl)-7-methyl-12-(trifluoromethyl)-2,3,5,8,13-pentazatricyclo[8.4.0.02,6]tetradeca-1(10),3,5,8,11,13-hexaen-4-yl]-(3-hydroxy-3-methyl-azetidin-1-yl)methanone] | 82 | 1.82 | 0.0805 | 0.0805 |
| C[C@@H]1N=C(c2c(F)cccc2F)c2c(cnc(C(F)(F)F)c2Cl)-n2nc(C(=O)N3CCS(=O)(=O)CC3)nc21 [Example 11, [(7S)-11-chloro-9-(2,6-difluorophenyl)-7-methyl-12-(trifluoromethyl)-2,3,5,8,13-pentazatricyclo[8.4.0.02,6]tetradeca-1(10),3,5,8,11,13-hexaen-4-yl]-(1,1-dioxo-1,4-thiazinan-4-yl)methanone] | 114 | 2.14 | 0.0458 | – |
| C[C@@H]1N=C(c2c(F)cccc2F)c2c(cnc(C(F)(F)F)c2Cl)-n2nc(NC(=O)C3COC3)nc21 [Example 12, N-[(7S)-11-chloro-9-(2,6-difluorophenyl)-7-methyl-12-(trifluoromethyl)-2,3,5,8,13-pentazatricyclo[8.4.0.02,6]tetradeca-1(10),3,5,8,11,13-hexaen-4-yl]oxetane-3-carboxamide] | 143 | 2.43 | – | – |
| C[C@@H]1N=C(c2c(F)cccc2F)c2c(cnc(C(F)(F)F)c2Cl)-n2nc(N3CCCC3=O)nc21 [Example 13, 1-[(7S)-11-chloro-9-(2,6-difluorophenyl)-7-methyl-12-(trifluoromethyl)-2,3,5,8,13-pentazatricyclo[8.4.0.02,6]tetradeca-1(10),3,5,8,11,13-hexaen-4-yl]pyrrolidin-2-one] | 173 | 2.73 | – | – |
| C[C@H](O)CNC(=O)c1nc2n(n1)-c1cnc(C(F)(F)F)c(Cl)c1C(c1c(F)cccc1F)=N[C@H]2C [Example 14, (7S)-11-chloro-9-(2,6-difluorophenyl)-N-[(2S)-2-hydroxypropyl]-7-methyl-12-(trifluoromethyl)-2,3,5,8,13-pentazatricyclo[8.4.0.02,6]tetradeca-1(10),3,5,8,11,13-hexaene-4-carboxamide] | 158 | 2.58 | 0.0918 | – |
| C[C@@H]1N=C(c2c(F)cccc2F)c2c(cnc(C(F)(F)F)c2Cl)-n2nc(C(=O)NCCO)nc21 [Example 15, (7S)-11-chloro-9-(2,6-difluorophenyl)-N-(2-hydroxyethyl)-7-methyl-12-(trifluoromethyl)-2,3,5,8,13-pentazatricyclo[8.4.0.02,6]tetradeca-1(10),3,5,8,11,13-hexaene-4-carboxamide] | 146 | 2.46 | 0.114 | – |
| C[C@@H]1N=C(c2c(F)cccc2F)c2c(cnc(C(F)(F)F)c2Cl)-n2c1nc1c2CCC1 [Example 20, (10S)-6-chloro-8-(2,6-difluorophenyl)-10-methyl-5-(trifluoromethyl)-1,4,9,12-tetrazatetracyclo[9.6.0.02,7.013,17]heptadeca-2(7),3,5,8,11,13(17)-hexaene] | 108 | 2.08 | – | – |
| C[C@@H]1N=C(c2c(F)cccc2F)c2c(cnc(C(F)(F)F)c2Cl)-n2nc(C(=O)NCC(C)(C)O)nc21 [Example 21, (7S)-11-chloro-9-(2,6-difluorophenyl)-N-(2-hydroxy-2-methyl-propyl)-7-methyl-12-(trifluoromethyl)-2,3,5,8,13-pentazatricyclo[8.4.0.02,6]tetradeca-1(10),3,5,8,11,13-hexaene-4-carboxamide] | 175 | 2.75 | – | – |
| C[C@@H]1N=C(c2c(F)cccc2F)c2c(cnc(C(F)(F)F)c2Cl)-n2nc(C(=O)NCC3(O)CC3)nc21 [Example 22, (7S)-11-chloro-9-(2,6-difluorophenyl)-N-[(1-hydroxycyclopropyl)methyl]-7-methyl-12-(trifluoromethyl)-2,3,5,8,13-pentazatricyclo[8.4.0.02,6]tetradeca-1(10),3,5,8,11,13-hexaene-4-carboxamide] | 172 | 2.72 | – | – |

Reference: US20240270744A1 (Hoffmann-La Roche Inc., priority 2021, published 2024)
